Article PMC5048153 (Scientific Reports, 2016)

What was measured:
L02 cells = assay: Cytotoxicity on L02 cells (MTT); type: cell-based, human; details: after treatment; for inhibition at 100 µM: Homo sapiens, L02, 100μM, read-out: IR (inhibitory rate) L02
Protocol: (§1) Human normal hepatic L02 cells, human embryonic kidney cell line 293 cells (HEK293) and Rattus myoblast cell line H9C2 cells were respectively seeded in 96-well plates at a density of 4 × 10^3 cells per well and cultured in the 1640 or DMEM medium, with the supplement of 10% fetal bovine serum, penicillin (100 unit/ml), streptomycin (100 μg/ml) in a humidified incubator with 5% CO2 for 24 h. […] The cytotoxicities of the compounds were evaluated by MTT method.

[1] = system: corticosterone-injured PC12 cells; assay: Protective effects on corticosterone-injured PC12 cells (MTT); type: cell-based, rat; design: key to PR (protection rate), Table S1: compounds did not shown protection effects on corticosterone-injured PC12 cells; details: 24 h after treatment; for PR (protection rate), Table S1: 1.25µM; for PR (protection rate): 1.25 μM, 200 μM corticosterone
Protocol: PC12 cells were purchased from American Type Culture Collection and were maintained in DMEM medium supplemented with penicillin (100 unit/ml), streptomycin (100 μg/ml), 5% fetal bovine serum (FBS), and 10% horse serum at 37 °C in humidified atmosphere with 5% CO2. The detailed procedures were performed referring to the reported literatures. Briefly, PC12 cells of logarithmic growth phase were collected, re-suspended and then seeded at a density of 1 × 10^5 cells per well in 96-well plates and cultured in the DMEM medium with 5% horse serum, 10% FBSfor 24 h.
After incubation with compounds, 20 μl of 5 mg/ml MTT solution was added to each well and cultured at 37 °C for 2 h–4 h. Then, the culture medium was removed, and 150 μl dimethyl sulfoxide(DMSO) was added to each well for 15 min at room temperature. The absorbance of each well was measured at 570 nm using a microplate reader. The protective rates (PR) were calculated according to equation (1).

HEK293 cells = assay: Cytotoxicity on HEK293 cells (MTT); type: cell-based, human; details: after treatment; for inhibition at 100 µM: Homo sapiens, HEK293, 100μM, read-out: IR (inhibitory rate) HEK293
Protocol: as §1

5-HT2C receptor = molecular target: T1, 5-HT2C receptor (Homo sapiens, UniProt P28335); assay: FLIPR assay for 5-HT2C antagonism; type: cell-based
T1 sequence (P28335 33-458): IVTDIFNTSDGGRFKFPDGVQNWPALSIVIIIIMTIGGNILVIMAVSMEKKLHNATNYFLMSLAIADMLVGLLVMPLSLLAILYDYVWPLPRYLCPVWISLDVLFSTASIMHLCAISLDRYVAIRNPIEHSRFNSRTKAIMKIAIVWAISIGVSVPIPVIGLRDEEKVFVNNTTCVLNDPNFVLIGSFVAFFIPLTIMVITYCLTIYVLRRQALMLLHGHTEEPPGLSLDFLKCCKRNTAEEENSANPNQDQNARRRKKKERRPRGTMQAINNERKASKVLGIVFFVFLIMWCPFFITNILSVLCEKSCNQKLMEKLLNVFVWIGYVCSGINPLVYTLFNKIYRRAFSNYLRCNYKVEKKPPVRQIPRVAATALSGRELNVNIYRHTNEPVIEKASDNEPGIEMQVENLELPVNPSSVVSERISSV
Protocol: Seed cells at the density of 10 K cell/well, 37 °C, 5% CO2 incubate for 16–24 hours, then loading cells with 30 ul of Calcium 5 and 37 °C, 5% CO2 incubate for 1 hour. After transfer compound to compound plate with 30 ul Assay Buffer by Echo, add 15 ul/well of compound, incubate for 10 mins.

Compound	inhibition at 100 µM (L02 cells) [%]	PR (protection rate), Table S1 [1]	PR (protection rate) [1]	inhibition at 100 µM (HEK293 cells) [%]	IC50 (5-HT2C receptor) [nM]	inhibition at 100 µM (5-HT2C receptor; read-out: Inhibition 5-HT2C) [%]	IR (inhibitory rate) L02 (L02 cells; 100μM) [%]	IR (inhibitory rate) HEK293 (HEK293 cells; 100μM) [%]
COc1ccc2c(c1)C(CCNC(=O)c1cc(Cl)ccc1Br)=NCC2.O=C(O)C(=O)O [6a-27, 2-Bromo-5-chloro-N-(2-(7-methoxy-3,4-dihydroisoquinolin-1-yl)ethyl)benzamide oxalate]	45.9	10.1%	above 10%	51.8				
COc1ccc2c(c1)C(CCNC(=O)c1cc(C(F)(F)F)ccc1Br)=NCC2.O=C(O)C(=O)O [6a-28, 2-Bromo-N-(2-(7-methoxy-3,4-dihydroisoquinolin-1-yl)ethyl)-5-(trifluoromethyl)benzamide oxalate]	43.7	2.4%		58.5				
COc1ccc2c(c1)C(CCNC(=O)c1cncc(Br)c1)=NCC2.O=C(O)C(=O)O [6a-29, 5-Bromo-N-(2-(7-methoxy-3,4-dihydroisoquinolin-1-yl)ethyl)nicotinamide oxalate]	14.4	-		29.5				
COc1ccc2c(c1)C(CCNC(=O)c1cc(Br)cnc1Cl)=NCC2.O=C(O)C(=O)O [6a-30, 5-Bromo-2-chloro-N-(2-(7-methoxy-3,4-dihydroisoquinolin-1-yl)ethyl)nicotinamide oxalate]	47.5	-		49.1				
COc1ccc2c(c1)C(CCNC(=O)c1ccc(Br)nc1)=NCC2.O=C(O)C(=O)O [6a-31, 6-Bromo-N-(2-(7-methoxy-3,4-dihydroisoquinolin-1-yl)ethyl)nicotinamide oxalate]	46.1	0.2%		56.1				
COc1ccc2c(c1)C(CCNC(=O)NC1CC1)=NCC2.O=C(O)C(=O)O [6b-1, 1-Cyclopropyl-3-(2-(7-methoxy-3,4-dihydroisoquinolin-1-yl)ethyl)urea oxalate]	27.2	-		19.5				
COc1ccc2c(c1)C(CCNC(=O)Nc1cccc(Cl)c1)=NCC2.O=C(O)C(=O)O [6b-2, 1-(3-Chlorophenyl)-3-(2-(7-methoxy-3,4-dihydroisoquinolin-1-yl)ethyl)urea oxalate]	38.9	-		37.9				
COc1ccc2c(c1)C(CCNC(=O)Nc1ccc(C(F)(F)F)cc1)=NCC2.O=C(O)C(=O)O [6b-3, 1-(2-(7-Methoxy-3,4-dihydroisoquinolin-1-yl)ethyl)-3-(4-(trifluoromethyl)phenyl)urea oxalate]	35.8	10.7%	above 10%	23.2				
COc1ccc2c(c1)C(CCNC(=O)Nc1ccccc1C(F)(F)F)=NCC2.O=C(O)C(=O)O [6b-4, 1-(2-(7-Methoxy-3,4-dihydroisoquinolin-1-yl)ethyl)-3-(2-(trifluoromethyl)phenyl)urea oxalate]	57.7	11.9%	above 10%	29.2				
COc1ccc2c(c1)C(CCNC(=O)Nc1cc(Cl)c(Cl)c(Cl)c1)=NCC2.O=C(O)C(=O)O [6b-5, 1-(2-(7-Methoxy-3,4-dihydroisoquinolin-1-yl)ethyl)-3-(3,4,5-trichlorophenyl)urea oxalate]	40.7	-		40.1				
COc1ccc2c(c1)C(CCNC(=O)Nc1c(C)cc(C#N)cc1C)=NCC2.O=C(O)C(=O)O [6b-6, 1-(4-Cyano-2,6-dimethylphenyl)-3-(2-(7-methoxy-3,4-dihydroisoquinolin-1-yl)ethyl)urea oxalate]	< 20	-		< 20				
COc1ccc2c(c1)C(CCNC(=O)Nc1ccc(C#N)c(F)c1)=NCC2.O=C(O)C(=O)O [6b-7, 1-(4-Cyano-3-fluorophenyl)-3-(2-(7-methoxy-3,4-dihydroisoquinolin-1-yl)ethyl)urea oxalate]	24.7	-		27.2				
COc1ccc2c(c1)C(CCNC(=O)Nc1ccc(Br)cn1)=NCC2.O=C(O)C(=O)O [6b-12, 1-(5-Bromopyridin-2-yl)-3-(2-(7-methoxy-3,4-dihydroisoquinolin-1-yl)ethyl)urea oxalate]	48.1	16.3%	above 10%	49.4				
COc1ccc2c(c1)C(CCNC(=O)Nc1cccc3ccccc13)=NCC2.O=C(O)C(=O)O [6b-13, 1-(2-(7-Methoxy-3,4-dihydroisoquinolin-1-yl)ethyl)-3-(naphthalen-1-yl)urea oxalate]	< 20	-		< 20				
COc1ccc2c(c1)C(CCNC(=O)Nc1ccc(F)c(Cl)c1)=NCC2.O=C(O)C(=O)O [6b-14, 1-(3-Chloro-4-fluorophenyl)-3-(2-(7-methoxy-3,4-dihydroisoquinolin-1-yl)ethyl)urea oxalate]	47.7	-		22.8				
COc1ccc2c(c1)C(CCNC(=O)Nc1cccc([N+](=O)[O-])c1)=NCC2.O=C(O)C(=O)O [6b-15, 1-(2-(7-Methoxy-3,4-dihydroisoquinolin-1-yl)ethyl)-3-(3-nitrophenyl)urea oxalate]	48.9	-		47.5				
COc1ccc2c(c1)C(CCNC(=O)Nc1nccs1)=NCC2.O=C(O)C(=O)O [6b-17, 1-(2-(7-Methoxy-3,4-dihydroisoquinolin-1-yl)ethyl)-3-(thiazol-2-yl)urea oxalate]	20.1	13.9%	above 10%	21.9				
COc1ccc2c(c1)C(CCNC(=O)Nc1ccc(Cl)c(Cl)c1)=NCC2.O=C(O)C(=O)O [6b-18, 1-(3,4-Dichlorophenyl)-3-(2-(7-methoxy-3,4-dihydroisoquinolin-1-yl)ethyl)urea oxalate]	57.5	12.8%	above 10%	56.1				
COc1ccc2c(c1)C(CCNC(=O)Nc1ccccc1[N+](=O)[O-])=NCC2 [6b-19, 1-(2-(7-Methoxy-3,4-dihydroisoquinolin-1-yl)ethyl)-3-(2-nitrophenyl)ureaoxalate]	31.5	-		33.5				
COc1ccc2c(c1)C(CCNC(=O)Nc1ccc(CC#N)cc1)=NCC2.O=C(O)C(=O)O [6b-20, 1-(4-(Cyanomethyl)phenyl)-3-(2-(7-methoxy-3,4-dihydroisoquinolin-1-yl)ethyl)urea oxalate]	52	-		47.8				
COc1ccc2c(c1)C(CCNC(=O)Nc1ccc(Br)cc1)=NCC2 [6b-21, 1-(4-Bromophenyl)-3-(2-(7-methoxy-3,4-dihydroisoquinolin-1-yl)ethyl)ureaoxalate]	38.3	-		41.2				
COc1ccc2c(c1)C(CCNC(=O)Nc1ncccc1Br)=NCC2.O=C(O)C(=O)O [6b-22, 1-(3-Bromopyridin-2-yl)-3-(2-(7-methoxy-3,4-dihydroisoquinolin-1-yl)ethyl)urea oxalate]	48.5	-		46.4				
CC[C@@H](CO)NC(=O)[C@@H]1C=C2c3cccc4c3c(cn4C)C[C@H]2N(C)C1 [Methysergide]					25	101		
N-(2-(7-Methoxy-3,4-dihydroisoquinolin-1-yl)ethyl)-4-methylbenzamide oxalate [6a-32]		-					43.2	54.8
